Assay results published in PubChem BioAssay AID1117319 (Southern Research Institute, 2015).
Several values for one entry are separate records, joined by “and”; a condition that tells them apart may be missing. Equal entries are not always repeated. Records with an inconclusive call do not appear.

Biological target: Virion infectivity factor (Human immunodeficiency virus type 1 group M subtype B (isolate BH10)) + Virion infectivity factor (Human immunodeficiency virus type 1 group M subtype B (isolate BRU/LAI)) + Virion infectivity factor (Human immunodeficiency virus type 1 group M subtype B (isolate PCV12)) + Virion infectivity factor (Human immunodeficiency virus type 1 group M subtype B (isolate HXB2)) + DNA dC->dU-editing enzyme APOBEC-3G (Homo sapiens) (UniProt P69720+P69721+P69722+P69723+Q9HC16)
Experiment: HIV-1 Vif–A3G interaction blockers – biochemical, TR-FRET, GST-Vif 1-94, biotin-A3G peptide, dose response retest, primary screen (AID 1117319);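 note: Vif residues 1-94 fused to GST binding biotinylated APOBEC3G peptide 110-148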
Settings: TR-FRET GST-Vif / biotin-A3G peptide binding

Compound	IC50
COc1ccc(OC)c(NC(=O)NCc2ccc(F)cc2)c1	58.5 µM
CCOCCNC(=O)c1ccccc1C(=O)NCCOCC	89.2 µM
Cc1noc(C)c1COc1ccc(C(=O)OCC(=O)N2c3ccccc3NC(=O)C2(C)C)cc1	14.9 µM
O=C(O)c1ccc(Cl)c2c1C1C=CCC1C(c1ccccn1)N2 (stereo not given)	0.82 µM
CCOC(=O)C1=C(O)/C(=C/c2ccc(CNC(=O)C(=O)Nc3ccc(C)cc3)o2)N=C1C	33.3 µM
O=C(Nc1ccc(Cl)c(-c2nc3ccccc3[nH]2)c1)c1cccnc1	79.7 µM
Oc1ccc(-c2cn3c(n2)SCC3)cc1O	1.11 µM
Cc1cc(NC(=O)CCNS(=O)(=O)c2cc(Br)cnc2N)ccc1Br	35.2 µM
O=C(NCC1CCCO1)c1cc(-c2ccco2)nc2ccccc12 (stereo not given)	14.4 µM
Cc1cc(C)c2c(c1)[C@@H]1C=CC[C@@H]1[C@H](c1ccc(S(=O)(=O)N3CCOCC3)cc1)N2	19.5 µM
Nc1ccc(N(CCO)CCO)cc1	2.17 µM
O=C1CC(Nc2ccc(N3CCOCC3)cc2)C(=O)N1Cc1ccccc1 (stereo not given)	2.29 µM
CCc1ccc(NC(=O)CCNS(=O)(=O)c2cccc3nonc23)cc1	53 µM
COc1ccccc1NC(=O)c1cc2ccccc2o/c1=N\O	67.4 µM
N#Cc1c(-c2ccco2)cc(-c2ccccc2)[nH]c1=O	14 µM
Clc1ccc2nc3ccccn3c2c1	98.3 µM
Cc1cc(C(=O)O)ccc1-n1c(C)ccc1C	5.16 µM
CN(C)[C@@H]1C(=O)C(C(=O)NCN2CCCC2)=C(O)[C@@]2(O)C(=O)C3=C(O)c4c(O)cccc4[C@@](C)(O)C3CC12 (stereo not given in full)	0.33 µM
COC/C=C/C1=CC2=CC(=O)C(C)(OC(=O)c3ccco3)C(=O)C2=CO1 (stereo not given)	1.52 µM
Nc1ccc(N2CCCCCC2)cc1	1.06 µM
CN(C)c1ccc(O)c2c1CC1CC3[C@@H](N(C)C)C(=O)C(C(N)=O)=C(O)[C@]3(O)C(=O)C1=C2O (stereo not given in full)	1.07 µM
Cc1ccc(/C=c2\sc3nc(-c4cccs4)nn3c2=O)o1	13.2 µM
CCOC(=O)N1CC=C2C(C#N)=C(N)C(C#N)(C#N)[C@H](c3cccs3)[C@H]2C1	4.68 µM

Compound	IC50
CNCc1ccccc1Sc1cc(O)ccc1O	3.46 µM
Cc1nc2ncccn2c1-c1csc(NCc2ccco2)n1	1.22 µM
CN(C)S(=O)(=O)c1cccc(NC(=S)N/N=C/c2ccc(O)c(O)c2O)c1	1.88 µM
C=C(C)C(=O)Nc1cccc(C2=NOC3(C2)C[C@H](C(N)=O)N(C(=O)C(c2ccccc2)c2ccccc2)C3)c1 (stereo not given in full)	2.41 µM
Cc1cc(C(=O)CSc2nnnn2C)c(C)n1CCc1ccc(Cl)cc1	29.4 µM
COc1ccc(N2CCN(C(=O)c3ccc(C)c(Cl)c3)CC2)cc1	42.2 µM
O=C(c1ccc(=O)oc1)N1CCCc2ccccc21	38.3 µM
COc1cc(C(=O)NCC(c2ccco2)N2CCCC2)ccc1OCc1c(C)noc1C (stereo not given)	99.2 µM
CC1=C(C#N)C(=O)N(C2CCS(=O)(=O)C2)C(=O)/C1=C\c1ccc(C)o1 (stereo not given)	1.42 µM
O=C(O)c1cccc2c1NC(C(=O)O)C1CC(Sc3ccccc3[N+](=O)[O-])C(Cl)C21 (stereo not given)	0.5 µM
CC(C)C(=O)Nc1nnc(Sc2ccc(N(C)C)cc2)s1	54.8 µM
CCN1CCc2c(C#N)c(NCc3ccccc3)nc(N(CC)CC)c2C1	62.8 µM
COC1=C(N)C(=O)c2nc(-c3nc(C(=O)O)c(C)c(-c4ccc(OC)c(OC)c4O)c3N)ccc2C1=O	10.8 µM
CC1(C)CCCN(C(=O)c2coc(=O)c(Br)c2)C1	3.54 µM
COc1cc(CNCCc2ccc(F)cc2)ccc1OCc1ccc(Cl)nc1	3.18 µM
COc1ccc(N2CCN(C(=O)c3c(-c4ccccc4)noc3C)CC2)cc1	31.1 µM
Cn1cccc1/C=C1/C(=O)NC(=O)N(Cc2ccccc2)C1=O	3.33 µM
COC(=O)C1=C(O)/C(=C\c2ccc(CNC(=O)C(=O)Nc3ccc(C)cc3)o2)N=C1C	24.1 µM
O=S(=O)(c1ccc2nc(-c3ccco3)c(-c3ccco3)nc2c1)N1CCOCC1	6.38 µM and 3.81 µM
N#CC1=C(Nc2ccccc2)SC=C(c2ccc(Br)cc2)N=C1N1CCOCC1	97.1 µM
O=C1N=C(N2CCN(c3ccccc3)CC2)S/C1=C\c1ccco1	4.27 µM
Cc1ccc(C)n1Cc1ccc(C(=O)O)cc1	1.55 µM
